Results as given in the supplement of paper PMC4862054.

Columns and labels:
Assay in all cases: normalised response (% of control), CellTiter-Glo; higher = more viable cells (100 = DMSO, 0 = benzethonium chloride kill control)
Conditions in all cases: incubation time: 72 h
BT-474 = system: BT-474
Method in brief: (§1)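 Breast cancer cell lines (20 µl suspension) were seeded into 384-well plates holding compound at 5 concentrations in 10-fold steps over a compound-specific 10,000-fold range, then incubated 72 h. CellTox Green fluorescence (485/520 nm) was read first, then CellTiter-Glo luminescence after 10 min at room temperature. Each plate was normalised to 0.1 % DMSO (100) and a positive kill control (0). Each value is the normalised signal at a single concentration of the series.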

BT-549 = system: BT-549
Method in brief: as §1

CAL-120 = system: CAL-120
Method in brief: as §1

CAL-148 = system: CAL-148
Method in brief: as §1

CAL-51 = system: CAL-51
Method in brief: as §1

CAL-85-1 = system: CAL-85-1
Method in brief: as §1

DU-4475 = system: DU-4475
Method in brief: as §1

HCC1143 = system: HCC1143
Method in brief: as §1

HCC1599 = system: HCC1599
Method in brief: as §1

HCC1937 = system: HCC1937
Method in brief: as §1

HDQ-P1 = system: HDQ-P1
Method in brief: as §1

Hs578T = system: Hs578T
Method in brief: as §1

MCF-10A = system: MCF-10A
Method in brief: as §1

MDA-MB-231 = system: MDA-MB-231
Method in brief: as §1

MDA-MB-436 = system: MDA-MB-436
Method in brief: as §1

MDA-MB-453 = system: MDA-MB-453
Method in brief: as §1

MDA-MB-468 = system: MDA-MB-468
Method in brief: as §1

MFM-223 = system: MFM-223
Method in brief: as §1

SK-BR-3 = system: SK-BR-3
Method in brief: as §1

Structure (SMILES)	normalised response (BT-474) [%]	normalised response (BT-549) [%]	normalised response (CAL-120) [%]	normalised response (CAL-148) [%]	normalised response (CAL-51) [%]	normalised response (CAL-85-1) [%]	normalised response (DU-4475) [%]	normalised response (HCC1143) [%]	normalised response (HCC1599) [%]	normalised response (HCC1937) [%]	normalised response (HDQ-P1) [%]	normalised response (Hs578T) [%]	normalised response (MCF-10A) [%]	normalised response (MDA-MB-231) [%]	normalised response (MDA-MB-436) [%]	normalised response (MDA-MB-453) [%]	normalised response (MDA-MB-468) [%]	normalised response (MFM-223) [%]	normalised response (SK-BR-3) [%]
Cn1cc(C2=Nc3cc(NC(=O)C(N)C4CCCCC4)cc4c3C2=CNNC4=O)cn1 (centres undefined) (1 nM)	93.8	98.2	97.1	91.3	103	95.9	98.3	86.8	97.4	94.1	91.4	94	80	95	86.7	84.3	91.2	86.7	82.5
Cn1cc(C2=Nc3cc(NC(=O)C(N)C4CCCCC4)cc4c3C2=CNNC4=O)cn1 (centres undefined) (10 nM)	94	95.2	90.9	87.3	134	93.3	95.3	90.4	93.4	96.2	91.7	94.3	84.6	91.2	89.4	91.7	90.6	90.4	77.2
COc1cc2c(cc1O)CC[C@@H]1[C@@H]2CC[C@]2(C)[C@@H](O)CC[C@@H]12 [2-methoxyestradiol] (10 nM)	97.8	94	101	91.3	97.5	103	101	103	92.7	98.1	101	96.8	94.6	97.7	106	96.4	98.2	96.5	
Cc1sc2c(c1C)C(c1ccc(Cl)cc1)=N[C@@H](CC(=O)OC(C)(C)C)c1nnc(C)n1-2 [(+)JQ1] (10 nM)	108	96.2	94.8	116	107	101	104	105	104	94.5	101	98.1	107	110	113	111	98.3	108	
CC1(C)CCC(CN2CCN(c3ccc(C(=O)NS(=O)(=O)c4ccc(NCC5CCOCC5)c([N+](=O)[O-])c4)c(Oc4cnc5[nH]ccc5c4)c3)CC2)=C(c2ccc(Cl)cc2)C1 [ABT-199] (1 nM)	94.8	98.9	98.9	100	122	99.5	98.2	98.6	89.5	106	101	104	98.3	97.4	98.5	101	94.1	96.8	95.4
CC1(C)CCC(CN2CCN(c3ccc(C(=O)NS(=O)(=O)c4ccc(NCC5CCOCC5)c([N+](=O)[O-])c4)c(Oc4cnc5[nH]ccc5c4)c3)CC2)=C(c2ccc(Cl)cc2)C1 [ABT-199] (10 nM)	97.3	95.7	91.8	103	68.3	106	96.2	99.2	104	99.7	97.1	103	101	97.2	102	97.5	118	100	
Oc1ncnc2[nH]ncc12 [Allopurinol] (10 nM)	102	101	99	107	98.1	98.6	106	103	104	99.2	99.5	97.5	107	99.6	96.5	109	99	108	106
O=C1CN2Cc3c(ccc(Cl)c3Cl)N=C2N1 [Anagrelide] (10 nM)	95.5	101	96.5	93.9	115	93.8	101	103	100	94.8	98.7	97.5	103	97	95.2	102	100	99.2	94.2
Nc1ncn([C@@H]2O[C@H](CO)[C@@H](O)[C@H]2O)c(=O)n1 [Azacitidine] (10 nM)	99.9	93.4	99.3	92	113	101	102	99.4	105	101	99.5	97.5	103	94.3	105	105	103	96.2	110
O=NN(CCCl)C(=O)NCCCl [Carmustine] (10 nM)	93.8	100	98.9	93.3	128	95.6	101	105	97.9	101	94.8	105	96.6	91.9	98.4	114	102	102	
CC1=C2C[C@H]3[C@@H](CC=C4C[C@@H](O)CC[C@@]43C)[C@@H]2CC[C@]12O[C@@H]1C[C@H](C)CN[C@H]1[C@H]2C [Cyclopamine] (10 nM)	104	95.6	102	117	110	98	109	105	116	104	105	105	114	105	105	109	110	113	120
CC(=O)N(O)CCCCCNC(=O)CCC(=O)N(O)CCCCCNC(=O)CCC(=O)N(O)CCCCCN [Deferoxamine] (1 nM)	94.6	104	106	91.9	108	93.2	95.6	95.1	120	93.7	105	100	99.2	91.8	101	94.8	91	94.7	94.8
CC(=O)N(O)CCCCCNC(=O)CCC(=O)N(O)CCCCCNC(=O)CCC(=O)N(O)CCCCCN [Deferoxamine] (10 nM)	94.5	106	97.4	88.3	87.7	93	92.3	102	110	101	105	97	91.4	91.5	96.3	90.2	98.2	96.9	99
CC(=O)O[C@@]12CO[C@@H]1C[C@H](O)[C@@]1(C)C(=O)[C@H](O)C3=C(C)[C@@H](OC(=O)[C@H](O)[C@@H](NC(=O)OC(C)(C)C)c4ccccc4)C[C@@](O)([C@@H](OC(=O)c4ccccc4)[C@H]21)C3(C)C [Docetaxel] (1 nM)	84.2	60.5	94.6	84.6	115	79.9	90.6	71.5	97.4	83.5	90	76.6	73.2	87.8	81.5	104	50.2	91.3	68.5
C[C@]12CC[C@@H]3c4ccc(OC(=O)N(CCCl)CCCl)cc4CC[C@H]3[C@@H]1CC[C@@H]2O [Estramustine] (1 nM)	95.3	97	97.6	80.3	118	95	89.3	96.4	109	93.1	100	95.5	86.5	94.7	106	94.6	88.2	88	90
C[C@]12CC[C@@H]3c4ccc(OC(=O)N(CCCl)CCCl)cc4CC[C@H]3[C@@H]1CC[C@@H]2O [Estramustine] (10 nM)	97	98.6	103	84.1	90.1	91.2	91.3	98.5	103	96	104	97	91.1	95.1	93.3	88.8	97.6	87.7	94.9
C[C@]1(O)C[C@@H](c2nc(-c3ccc4ccc(-c5ccccc5)nc4c3)c3c(N)nccn32)C1 [Linsitinib] (1 nM)	98.2	92.6	97.7	98	109	92.8	98	91.7	106	91.5	105	93.2	89.5	95.3	96.4	90.9	93.9	87.5	91.5
C[C@]1(O)C[C@@H](c2nc(-c3ccc4ccc(-c5ccccc5)nc4c3)c3c(N)nccn32)C1 [Linsitinib] (10 nM)	93.7	94.4	102	85.6	92.4	95	94.9	96.1	78.5	101	99	96.1	88.9	94.8	89.2	99.3	90.8	92.8	76.1
CC1(C)CNc2cc(NC(=O)c3cccnc3NCc3ccncc3)ccc21 [Motesanib] (10 nM)	105	95.3	97.9	87.4	123	92.9	99.4	98.2	101	99.6	93.9	98.3	93.9	91.2	99.4	106	96.8	93.7	76.2
Nc1nc2[nH]cnc2c(=S)[nH]1 [Thioguanine] (10 nM)	93.8		100	105	85.1	99.4	98.5	101	112	96.9	94.6	102	98.7	98.2	98.8	87.4	99.5	97.2	
